# Experimental data as given in ChEMBL document CHEMBL3886179, “Substituted 6, 7-dialkoxy-3-isoquinoline derivatives as inhibitors of phosphodiesterase 10 (PDE 10A)” (2015).
# Biological target: cAMP and cAMP-inhibited cGMP 3',5'-cyclic phosphodiesterase 10A (Homo sapiens, UniProt Q9Y233)
# Experiment: Diaxonhit Phosphodiesterase Assay: The phosphodiesterase assay was developed using the LANCE cAMP kit (PerkinElmer). The assay buffer contained HBSS with 5 mM HEPES, 0.1% BSA, and 1.5 mM MgCl2, pH 7.4. PDE10A (BPS Bioscience) was used at 200 pg/well (with a specific activity of 3200 pmole/min/ug with assay conditions: 10 mM Tris-HCl, pH 7.4, 10 mM MgCl2, 1 mM MnCl2, 200 uM cAMP, 2.5 kU 5' nucleotidase, 37° C., 20 min) and PDE4D3 (BPS Bioscience) was used at 100 pg/well (with a specific activity of 32713 pmole/min/ug with assay conditions: 10 mM Tris-HCl, pH 7.4, 10 mM MgCl2, 1 mM MnCl2, 200 uM cAMP, 2.5 kU 5' nucleotidase, 37° C., 20 min). The Biotin-cAMP tracer, supplied in 10 mmol/L Tris-HCl buffered (pH 8.0) salt solution with 1 mmol/L ethylenediaminetetraacetic acid (EDTA), 0.1% bovine serum albumin (BSA), and 0.05% sodium azide, is used at a dilution of 1/375. The assay detection mixture contained the LANCE Eu-W8044 labeled streptavidin 1/2250 (supplied in 50 mmol/L Tris-HCl buffer).
# Chain of cAMP and cAMP-inhibited cGMP 3',5'-cyclic phosphodiesterase 10A (Q9Y233 whole entry): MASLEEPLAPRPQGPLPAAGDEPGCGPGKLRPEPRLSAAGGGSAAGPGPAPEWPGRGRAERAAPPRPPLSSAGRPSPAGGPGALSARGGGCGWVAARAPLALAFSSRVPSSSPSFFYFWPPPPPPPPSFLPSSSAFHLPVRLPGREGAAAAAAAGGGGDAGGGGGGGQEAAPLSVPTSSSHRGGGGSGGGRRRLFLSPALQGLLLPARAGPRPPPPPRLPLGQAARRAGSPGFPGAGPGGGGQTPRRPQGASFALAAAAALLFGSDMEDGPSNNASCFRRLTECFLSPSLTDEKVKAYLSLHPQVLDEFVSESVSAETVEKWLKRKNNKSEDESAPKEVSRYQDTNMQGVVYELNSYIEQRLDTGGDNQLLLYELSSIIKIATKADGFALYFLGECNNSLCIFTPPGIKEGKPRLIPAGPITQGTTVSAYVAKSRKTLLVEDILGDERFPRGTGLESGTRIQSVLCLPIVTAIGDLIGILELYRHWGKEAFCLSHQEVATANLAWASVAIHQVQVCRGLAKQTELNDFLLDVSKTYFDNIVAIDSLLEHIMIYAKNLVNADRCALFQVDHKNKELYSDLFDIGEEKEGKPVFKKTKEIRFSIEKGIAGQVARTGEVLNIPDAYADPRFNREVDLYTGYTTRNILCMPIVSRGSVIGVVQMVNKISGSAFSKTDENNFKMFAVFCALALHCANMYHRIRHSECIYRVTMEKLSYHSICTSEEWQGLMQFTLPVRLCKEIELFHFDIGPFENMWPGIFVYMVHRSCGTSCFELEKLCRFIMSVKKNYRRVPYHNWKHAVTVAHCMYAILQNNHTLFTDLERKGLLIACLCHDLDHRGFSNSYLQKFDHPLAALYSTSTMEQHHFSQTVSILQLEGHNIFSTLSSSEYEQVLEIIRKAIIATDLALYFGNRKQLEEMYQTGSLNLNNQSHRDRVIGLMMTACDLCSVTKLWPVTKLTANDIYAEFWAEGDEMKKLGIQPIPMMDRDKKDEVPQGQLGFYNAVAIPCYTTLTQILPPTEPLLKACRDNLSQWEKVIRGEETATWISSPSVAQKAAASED
row,SMILES,IC50
1,CCc1ncc(Cc2ccc3cccc(C#N)c3n2)c2cc(OC)c(OC)cc12,46 nM
2,CCn1ncc2c(Cl)c(Cc3cncc4cc(OC)c(OC)cc34)cnc21,330 nM
3,COc1cc2cncc(Cc3ccc4oc(-c5ccc(CO)cc5)nc4c3)c2cc1OC,19 nM
4,COc1cc2cncc(Cc3ccc4cccc(N)c4n3)c2cc1OC,13 nM
5,CCc1ncc(Cc2ccc3oc4ccccc4c3c2)c2cc(OC)c(OC)cc12,339 nM
6,COc1cc2cncc(Cc3cnc4ccccc4c3)c2cc1OC,13 nM
7,COc1cc2cncc(Cc3cc4ccccc4cn3)c2cc1OC,30 nM
8,COc1cc2cncc(Cc3ccc4nc(C)ccc4c3)c2cc1OC,6.5 nM
9,CCn1ncc2c(O)c(Cc3cncc4cc(OC)c(OC)cc34)cnc21,238 nM
10,COc1cc2cncc(Cc3coc4ccc(F)cc4c3=O)c2cc1OC,38 nM
11,COCc1ncc(Cc2ccc3cccc(OCC(N)=O)c3n2)c2cc(OC)c(OC)cc12,21 nM
12,CCCc1ncc(Cc2ccc3cccc(OCc4nnn[nH]4)c3n2)c2cc(OC)c(OC)cc12,4.7 nM
13,COc1cc2cncc(Cc3ccc4cccc(OCc5cccnc5)c4n3)c2cc1OC,90 nM
14,CCCc1ncc(Cc2ccc3cccc(NC(=O)CO)c3n2)c2cc(OC)c(OC)cc12,15 nM
15,CCCc1ncc(Cc2ccc3cccc(OCCNC(C)=O)c3n2)c2cc(OC)c(OC)cc12,58 nM
16,CCOc1c(Cc2cncc3cc(OC)c(OC)cc23)cnc2c1cnn2CC,3560 nM
17,COc1cc2cncc(Cc3ccc4c(c3)oc(=O)n4C)c2cc1OC,3.6 nM
18,COc1cc2cncc(Cc3ccc4ncccc4c3)c2cc1OC,54 nM
19,CCCc1ncc(Cc2cnc3ccccc3c2)c2cc(OC)c(OC)cc12,11 nM
20,COc1cc2cncc(Cc3ccc4nc(-c5ccc(CO)cc5)oc4c3)c2cc1OC,20 nM

row,SMILES,IC50
1,COc1cc2cncc(Cc3coc4ccccc4c3=O)c2cc1OC,41 nM
2,COCc1ncc(Cc2ccc3cccc(N)c3n2)c2cc(OC)c(OC)cc12,8.6 nM
3,COc1cc2cncc(Cc3ccc4oc(-c5ccc(C#N)cc5)nc4c3)c2cc1OC,148 nM
4,COc1cc2cncc(Cc3coc4c(Cl)cc(Cl)cc4c3=O)c2cc1OC,27 nM
5,CCc1ncc(Cc2cc3ccccc3cn2)c2cc(OC)c(OC)cc12,32 nM
6,COc1cc2cncc(Cc3ccc4c(c3)CCC(C)(C)O4)c2cc1OC,81 nM
7,COc1cc2cncc(Cc3coc4ccc(C)cc4c3=O)c2cc1OC,5.1 nM
8,CCc1ncc(Cc2cnc3ccc(NS(C)(=O)=O)cc3c2)c2cc(OC)c(OC)cc12,16 nM
9,CCCc1ncc(Cc2ccc3cccc(OCCO)c3n2)c2cc(OC)c(OC)cc12,6.6 nM
10,COc1cc2cncc(Cc3ccc4oc(-c5ccccc5)nc4c3)c2cc1OC,189 nM
11,CCCc1ncc(Cc2cnc3cc(C)ccc3c2)c2cc(OC)c(OC)cc12,5.2 nM
12,CCOc1cc2c(Cc3ccc4oc5ccccc5c4c3)cncc2cc1OC,287 nM
13,CCn1c(=O)oc2cc(Cc3cncc4cc(OC)c(OC)cc34)ccc21,32 nM
14,CCCc1ncc(Cc2ccc3cccc(NC(=O)COC(C)=O)c3n2)c2cc(OC)c(OC)cc12,204 nM
15,COc1cc2cncc(Cc3cc4ccccc4nc3Cl)c2cc1OC,95 nM
16,c1ccc2c(c1)oc1ccc(Cc3cncc4cc5c(cc34)OCCO5)cc12,7560 nM
17,CCc1ncc(Cc2ccc3cccc(OC(C)=O)c3n2)c2cc(OC)c(OC)cc12,3110 nM
18,CCCOc1cccc2ccc(Cc3cncc4cc(OC)c(OC)cc34)nc12,315 nM
19,COc1cc2cncc(Cc3coc4ccc(Cl)cc4c3=O)c2cc1OC,20 nM

# Continued by falling IC50, values first:
row,IC50,SMILES
1,3170 nM,c1ccc2c(c1)oc1ccc(Cc3cncc4cc5c(cc34)OCO5)cc12
2,1070 nM,COc1cc2cnc(C)c(Cc3ccc4ccccc4c3)c2cc1OC
3,946 nM,CCCCc1ncc(Cc2cnc3cc(C)ccc3c2)c2cc(OC)c(OC)cc12
4,491 nM,CCCc1ncc(Cc2ccc3c(C(F)(F)F)ccc(O)c3n2)c2cc(OC)c(OC)cc12
5,194 nM,COc1cc2c(Cc3ccc4ccccc4c3)cnc(C)c2cc1OC
6,184 nM,COc1cc2c(Cc3ccc4oc5ccccc5c4c3)cnc(C)c2cc1OC
7,168 nM,CCOc1cc2cncc(Cc3cnc4ccccc4c3)c2cc1OCC
8,159 nM,CCCc1ncc(Cc2cc3ccccc3cn2)c2cc(OC)c(OC)cc12
9,142 nM,COc1cc2cncc(Cc3cc4ccccc4nc3N(C)C)c2cc1OC
10,110 nM,COc1cc2cncc(Cc3ccc4c(c3)Cc3ccccc3-4)c2cc1OC
11,109 nM,CCCc1ncc(Cc2ccc3cccc(OC(C)=O)c3n2)c2cc(OC)c(OC)cc12
12,105 nM,COc1cc2cncc(Cc3ccc4ccccc4c3)c2cc1OC
13,92 nM,CCCCc1ncc(Cc2cnc3ccccc3c2)c2cc(OC)c(OC)cc12
14,74 nM,COc1cc2cncc(Cc3ccc4[nH]cnc4c3)c2cc1OC
15,71 nM,CCOC(=O)COc1cccc2ccc(Cc3cnc(COC)c4cc(OC)c(OC)cc34)nc12
16,70 nM,COc1cc2cncc(Cc3ccc4c(c3)OCCN4C)c2cc1OC
17,65 nM,CCCc1ncc(Cc2cc3cc(OC)ccc3nc2OCCNC(C)=O)c2cc(OC)c(OC)cc12
18,51 nM,CCOC(=O)COc1cccc2ccc(Cc3cncc4cc(OC)c(OC)cc34)nc12
19,51 nM,CCCc1ncc(Cc2ccc3cccc(OCC(=O)NC)c3n2)c2cc(OC)c(OC)cc12
20,44 nM,CCc1ncc(Cc2cc3cc(OC)ccc3nc2O)c2cc(OC)c(OC)cc12
21,42 nM,COc1cc2c(Cc3cnc4ccccc4c3)cnc(C3CC3)c2cc1OC

row,IC50,SMILES
1,36 nM,CCCc1ncc(Cc2cc3ccccc3nc2O)c2cc(OC)c(OC)cc12
2,34 nM,COc1cc2cncc(Cc3ccc4[nH]c(=O)oc4c3)c2cc1OC
3,31 nM,COc1cc2c(Cc3ccc4nc(C)ccc4c3)cnc(CC(C)C)c2cc1OC
4,31 nM,CCc1ncc(Cc2ccc3cccc(OCc4nnn[nH]4)c3n2)c2cc(OC)c(OC)cc12
5,28 nM,COc1cc2cncc(Cc3ccc4oc(-c5cccc(CO)c5)nc4c3)c2cc1OC
6,25 nM,COc1cc2c(Cc3ccc4nc(C)ccc4c3)cnc(C3CC3)c2cc1OC
7,20 nM,CCCc1ncc(Cc2ccc3cccc(O)c3n2)c2cc(OC)c(OC)cc12
8,19 nM,CCc1ncc(Cc2cnc3ccccc3c2)c2cc(OC)c(OC)cc12
9,19 nM,COCc1ncc(Cc2ccc3cccc(O)c3n2)c2cc(OC)c(OC)cc12
10,18 nM,COc1cc2c(Cc3cnc4ccc(O)cc4c3)cnc(C)c2cc1OC
11,18 nM,COc1ccc2cc(Cc3cncc4cc(OC)c(OC)cc34)cnc2c1
12,15 nM,CCc1ncc(Cc2cnc3ccc(N4CCCC4=O)cc3c2)c2cc(OC)c(OC)cc12
13,9.4 nM,CCCc1ncc(Cc2cnc3ccc(O)cc3c2)c2cc(OC)c(OC)cc12
14,8.3 nM,CCc1ncc(Cc2ccc3cccc(NS(C)(=O)=O)c3n2)c2cc(OC)c(OC)cc12
15,7.9 nM,COc1cc2cncc(Cc3cnc4ccc(OCC(=O)O)cc4c3)c2cc1OC
16,7.6 nM,COc1cc2cncc(Cc3ccc4oc5ccccc5c4c3)c2cc1OC
17,4.9 nM,CCCc1ncc(Cc2ccc3cccc(OCC(=O)O)c3n2)c2cc(OC)c(OC)cc12
18,4.5 nM,COCc1ncc(Cc2cnc3ccc(O)c(C(F)(F)F)c3c2)c2cc(OC)c(OC)cc12
19,1.2 nM,COc1cc2cncc(Cc3cnc4cc(C)ccc4c3)c2cc1OC
20,0.18 nM,COCc1ncc(Cc2ccc3cccc(NS(N)(=O)=O)c3n2)c2cc(OC)c(OC)cc12
